Values quoted from earlier work as cited in patent US10842883B2, “Aqueous oral solutions of steroid hormones and hydroxypropyl-β-cyclodextrin with optimised bioavailability” (ALTERGON S.A., priority 2012, dated 2020).

Conditions: Gould et al., Food Chem. Toxicol. 43 (2005)

CC(O)COC[C@H]1O[C@@H]2O[C@H]3[C@H](O)[C@@H](O)[C@@H](O[C@H]4[C@H](O)[C@@H](O)[C@@H](O[C@H]5[C@H](O)[C@@H](O)[C@@H](O[C@H]6[C@H](O)[C@@H](O)[C@@H](O[C@H]7[C@H](O)[C@@H](O)[C@@H](O[C@H]8[C@H](O)[C@@H](O)[C@@H](O[C@H]1[C@H](O)[C@H]2O)O[C@@H]8COCC(C)O)O[C@@H]7COCC(C)O)O[C@@H]6COCC(C)O)O[C@@H]5COCC(C)O)O[C@@H]4COCC(C)O)O[C@@H]3COCC(C)O (stereo partly drawn) [hydroxypropyl-β-cyclodextrin]
fraction absorbed after oral administration: about 5%
